The test concerns genetic and environmental mouse models of ASD. Briefly: Tactile PPI, air puff response and startle amplitude after acute midazolam or isoguvacine in ASD mouse models. The class given is in vivo. The procedure: FIGS. 19A-19N show acute administration of the peripherally-restricted GABAA receptor agonist isoguvacine improves tactile hypersensitivity in five genetic and one environmental model of ASD. […] Two-way ANOVA with post-hoc Sidak's test, *, p<0.05. FIG. 19B: Response to a light air puff stimulus alone in mice following i.p. administration of either saline or 2 mg/kg midazolam treatment. Responses are expressed as percent of startle response to a 125 dB noise. Two-way ANOVA with post-hoc Sidak's test, *, p<0.05. FIG. 19C: Magnitude of startle response to a 125 dB noise in mice following i.p. administration of either saline or 2 mg/kg midazolam treatment. Responses are expressed as percent of startle response to a 125 dB noise. Two-way ANOVA with post-hoc Sidak's test, *, p<0.05. FIG. 19D: Magnitude of startle response to a 125 dB noise in mice following i.p. administration of saline, midazolam (2 mg/kg) or a peripherally-restricted GABAA receptor agonist, isoguvacine (2 mg/kg). Responses are expressed as percent of startle response to a 125 dB noise. Two-way ANOVA with post-hoc Sidak's test, *, p<0.05. FIGS. 19E-19G: Liquid chromatography mass spectrometry (LC-MS) quantified isoguvacine concentrations in cerebrospinal fluid (CSF) (FIG. 19E), blood (FIG. 19F) or liver (FIG. 19G) samples of mice treated with: i.p. saline, i.p. isoguvacine (“Iso.”, 20 mg/kg, samples collected 1, 3 or 24 hours post-injection), intracerebral injection isoguvacine (20 mg/kg, 1 hour post-injection), i.p. diazepam (“DZ”, 20 mg/kg, 1 hour post injection) or intracerebral injection diazepam (20 mg/kg, 1 hour post injection). FIG. 19H: Normalized peak chloride flux through α1β3γ2- and α2β3γ2-containing GABAA receptors in response to isoguvacine application. […] FIGS. 19I-19K: GABAA receptor subunit RNA expression levels across peripheral somatosensory neuron subtypes, for the alpha (FIG. 19I), beta (FIG. 19J), and gamma (FIG. 19K) subunit types. […] Two-way ANOVA with post-hoc Sidak's test, *, p<0.05. FIG. 19M: Response to a light air puff stimulus alone in mice following i.p. administration of either saline or 2 mg/kg isoguvacine treatment. Responses are expressed as percent of startle response to a 125 dB noise. Two-way ANOVA with post-hoc Sidak's test, *, p<0.05. FIG. 19N: Magnitude of startle response to a 125 dB noise in mice following i.p. administration of either saline or 2 mg/kg isoguvacine treatment. Responses are expressed as percent of startle response to a 125 dB noise. Two-way ANOVA with post-hoc Sidak's test, *, p<0.05.
Results of the GABAA receptor restoration experiments raised the possibility that pharmacological treatment with a GABAA receptor agonist may improve tactile reactivity in Mecp2 mutant mice. It was therefore tested whether benzodiazepines, which are positive allosteric modulators (PAMs) of GABAA receptors, would attenuate hairy skin hypersensitivity in Mecp2 mutant mice. Advillin^Cre; Mecp2^f/y mutant mice and their control littermates were administered either vehicle alone or the benzodiazepine midazolam (2 mg/kg, i.p.) in a pseudorandomized manner, and then subjected to tactile PPI. On the following day, treatment regimens were reversed, and tactile PPI was repeated.
While traditional blood-brain barrier (BBB) penetrating benzodiazepines and non-benzodiazepine GABAA receptor PAMs are useful for treating some ASD-related symptoms in patients, including acute anxiety, significant adverse effects including sedation and addictive potential are common (Gudex, 1991). Furthermore, long-term benzodiazepine use is linked to cognitive impairment across multiple domains, including short-term verbal memory and attention (Golombok et al., 1988; Tata et al., 1994), leading to general reluctance within the medical community for prescribing benzodiazepines and other GABAA receptor PAMs to young children (Howes et al., 2018). […]

“Also recorded” adds a separate entry of the source.

On to `O=C(O)C1=CCNCC1` [Isoguvacine, isoguvacine], for which the “hairy skin sensitivity (tactile PPI)” value (Advillin^Cre, Gabrb3^f/f mice (homozygous deletion), 2 mg/kg i.p.) is listed as “no reduction in hairy skin sensitivity”. Besides, the “tactile hypersensitivity (tactile PPI performance and responsivity to air puff)” value (Advillin^Cre, Mecp2^f/y and Advillin^Cre, Gabrb3^f/+ mutant mice, acute 2 mg/kg i.p.) is “significantly reduced tactile hypersensitivity; also recorded: improved tactile hypersensitivity”. Further, the hairy skin hypersensitivity entry was “attenuated hairy skin hypersensitivity” (Shank3, Fmr1, and Cntnap2 mutant mice, acute 2 mg/kg i.p.); “improvement in hairy skin hypersensitivity” (mice exposed to polyinosinic:polycytidylic acid at E12.5 (maternal immune activation model)).
